pIC50: −log10 of the molar value.
target: Human TRPA1 (Homo sapiens, UniProt O75762); test: Assay 1: In vitro cellular testing of TRPA1 modulation (CHO-TREx, Fluo-3 calcium fluorescence, AITC agonist); format: cell-based; design: expressed in transfected cells; host or cells: CHO-TREx cells (Invitrogen), vector pcDNA4/TO; details: CHO-TREx cells expressing human TRPA1; Fluo-3 fluorescence (FLIPR/Tetra); agonist 15 μM allyl isothiocyanate (AITC); 30 minute antagonist incubation
Description: Assay 1: In Vitro Cellular Testing of TRPA1 Modulation
Human TRPA1 (NCBI accession number NM_007332.1) was cloned into pcDNA4/TO. CHO-TREx cells (Invitrogen, Carlsbad, Calif.) were stably transfected with pcDNA4/TO-TRPA1 using lipofection to generate a clonal cell line that expressed human TRPA1 in a tetracycline-inducible manner. Culture medium used was Ham's F-12 supplemented with 10% fetal bovine serum, 2 mM L-glutamine, 5 μg/ml blasticidin and 200 μg/ml zeocin. Cells were seeded in black-walled clear-bottom 96-well plates at a density of 50,000 cells per well and cultured overnight at 37° C. with 5% CO2 in culture medium supplemented with 1 μg/ml tetracycline. On the day of the experiment, cells were washed 3 times with HEPES buffered saline (in mM: NaCl 137, MgCl2 0.5, KCl 2, dextrose 5, CaCl2 2 and HEPES 10; pH 7.4). Cells were then loaded with calcium-sensitive fluorescent dye by incubation in the presence of 4 μM Fluo-3 AM (TefLabs, Austin, Tex.) at room temperature in the dark for 60 minutes. After incubation with dye, cells were washed in assay buffer and, if appropriate, antagonists were added at this time. Following a further 30 minute incubation, cells were assayed using a Fluorometric Imaging Plate Reader (FLIPR™) or a Tetra (both manufactured by Molecular Devices, CA) to simultaneously monitor Fluo-3 fluorescence in all wells (λexcitation=488 nm, λemission=540 nm). Changes in fluorescence were monitored for 3 minutes after the addition of 15 μM allyl isothiocyanate (AITC) as an agonist. Concentration-dependence of receptor blocking was determined by exposing each well of cells in duplicate rows of a 96-well plate to a serial dilution of test compound. The concentration series usually started at 10 μM with a three-fold serial decrement in concentration. The magnitude of the response to agonist challenge was determined by measuring the fluorescence before and 3 minutes after the addition of the agonist. The degree of blocking was determined by comparing the response to that of negative (no added antagonist) and positive (10 μM ruthenium red) control wells. Data were analyzed using a non-linear regression program (Origin; OriginLab, MA) to fit the concentration-response data to a Hill function. Antagonist potencies were determined as the concentration required to produce 50% reduction in the response as compared to the negative and positive controls.

Human TRPA1, sequence (O75762 whole entry): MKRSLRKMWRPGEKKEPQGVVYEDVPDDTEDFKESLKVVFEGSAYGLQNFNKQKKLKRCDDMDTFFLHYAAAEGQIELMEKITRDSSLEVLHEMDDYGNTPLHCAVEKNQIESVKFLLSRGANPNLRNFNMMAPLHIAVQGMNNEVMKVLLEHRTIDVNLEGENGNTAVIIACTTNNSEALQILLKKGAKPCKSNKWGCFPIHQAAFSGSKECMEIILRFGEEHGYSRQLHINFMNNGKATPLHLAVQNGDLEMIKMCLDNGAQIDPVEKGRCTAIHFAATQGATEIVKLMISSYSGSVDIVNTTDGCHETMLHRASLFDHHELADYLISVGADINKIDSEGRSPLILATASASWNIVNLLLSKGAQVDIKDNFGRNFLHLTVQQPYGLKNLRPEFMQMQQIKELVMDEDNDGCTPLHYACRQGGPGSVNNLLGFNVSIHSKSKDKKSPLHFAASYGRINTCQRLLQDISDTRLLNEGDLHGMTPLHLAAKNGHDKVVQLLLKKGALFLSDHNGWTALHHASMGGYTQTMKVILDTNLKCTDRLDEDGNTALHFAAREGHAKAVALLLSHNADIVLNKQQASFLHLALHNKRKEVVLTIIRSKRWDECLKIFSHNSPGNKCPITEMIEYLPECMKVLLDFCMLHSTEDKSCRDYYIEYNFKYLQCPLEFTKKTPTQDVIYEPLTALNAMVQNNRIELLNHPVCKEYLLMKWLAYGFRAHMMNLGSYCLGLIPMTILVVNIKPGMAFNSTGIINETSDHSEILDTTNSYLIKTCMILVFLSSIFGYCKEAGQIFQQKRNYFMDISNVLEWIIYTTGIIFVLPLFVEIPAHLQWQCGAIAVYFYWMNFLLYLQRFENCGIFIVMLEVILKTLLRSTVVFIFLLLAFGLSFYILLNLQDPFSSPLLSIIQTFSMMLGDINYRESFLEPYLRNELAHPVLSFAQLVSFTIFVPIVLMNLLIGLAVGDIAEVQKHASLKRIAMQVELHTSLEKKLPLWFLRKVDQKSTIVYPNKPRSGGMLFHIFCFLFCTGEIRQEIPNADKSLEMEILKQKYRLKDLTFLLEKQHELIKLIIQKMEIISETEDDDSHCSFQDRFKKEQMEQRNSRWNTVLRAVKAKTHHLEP

SMILES	pIC50
CNC1CCN(c2nc(CNC(=O)[C@@H]3CCCN3S(=O)(=O)c3ccc(Cl)s3)cc(-c3ccc(C(F)(F)F)cc3)n2)C1 (stereo partly drawn) [Example 41, 1-(5-Chloro-thiophene-2-sulfonyl)-pyrrolidine-2S-carboxylic acid [2-(3-methylamino-pyrrolidin-1-yl)-6-(4-trifluoromethyl-phenyl)-pyrimidin-4-ylmethyl]-amide]	5.53
CC(C)COc1nc(CNC(=O)[C@@H]2CCCN2S(=O)(=O)c2ccc(F)cc2)cc(-c2ccc(C(F)(F)F)cc2)n1 [Example 42, 1-(4-Fluoro-benzenesulfonyl)-pyrrolidine-2-carboxylic acid [2-isobutoxy-6-(4-trifluoromethyl-phenyl)-pyrimidin-4-ylmethyl]-amide]	7.80
CC(C)COc1nc(CNC(=O)[C@@H]2CCCN2S(=O)(=O)c2ccc(Cl)s2)cc(-c2ccc(C(F)(F)F)cc2)n1 [Example 43, 1-(5-Chloro-thiophene-2-sulfonyl)-pyrrolidine-2S-carboxylic acid [2-isobutoxy-6-(4-trifluoromethyl-phenyl)-pyrimidin-4-ylmethyl]-amide]	8.40
CC(C)C1CCCN1c1nc(CNC(=O)[C@@H]2CCCN2S(=O)(=O)c2ccc(Cl)s2)cc(-c2ccc(C(F)(F)F)cc2)n1 (stereo partly drawn) [Example 44, 1-(5-Chloro-thiophene-2-sulfonyl)-pyrrolidine-2S-carboxylic acid [2-(2-isopropyl-pyrrolidin-1-yl)-6-(4-trifluoromethyl-phenyl)-pyrimidin-4-ylmethyl]-amide]	7.92
CC(O)CNc1nc(CNC(=O)[C@@H]2CCCN2S(=O)(=O)c2ccc(Cl)s2)cc(-c2ccc(C(F)(F)F)cc2)n1 (stereo partly drawn) [Example 45, 1-(5-Chloro-thiophene-2-sulfonyl)-pyrrolidine-2S-carboxylic acid [2-(2-hydroxy-propylamino)-6-(4-trifluoromethyl-phenyl)-pyrimidin-4-ylmethyl]-amide]	5.69
CC(C)(O)CNc1nc(CNC(=O)[C@@H]2CCCN2S(=O)(=O)c2ccc(Cl)s2)cc(-c2ccc(C(F)(F)F)cc2)n1 [Example 46, 1-(5-Chloro-thiophene-2-sulfonyl)-pyrrolidine-2S-carboxylic acid [2-(2-hydroxy-2-methyl-propylamino)-6-(4-trifluoromethyl-phenyl)-pyrimidin-4-ylmethyl]-amide]	6.13
COc1nc(CNC(=O)[C@@H]2CCCN2S(=O)(=O)c2ccc(Cl)s2)cc(-c2ccc(C(F)(F)F)cc2)n1 [Example 47, 1-(5-Chloro-thiophene-2-sulfonyl)-pyrrolidine-2S-carboxylic acid [2-methoxy-6-(4-trifluoromethyl-phenyl)-pyrimidin-4-ylmethyl]-amide]	7.85
CC1CCCN1c1nc(CNC(=O)[C@@H]2CCCN2S(=O)(=O)c2ccc(Cl)s2)cc(-c2ccc(C(F)(F)F)cc2)n1 (stereo partly drawn) [Example 48, 1-(5-Chloro-thiophene-2-sulfonyl)-pyrrolidine-2S-carboxylic acid [2-(2-methyl-pyrrolidin-1-yl)-6-(4-trifluoromethyl-phenyl)-pyrimidin-4-ylmethyl]-amide]	8.22
CCOc1nc(CNC(=O)[C@@H]2CCCN2S(=O)(=O)c2ccc(Cl)s2)cc(-c2ccc(C(F)(F)F)cc2)n1 [Example 49, 1-(5-Chloro-thiophene-2-sulfonyl)-pyrrolidine-2S-carboxylic acid [2-ethoxy-6-(4-trifluoromethyl-phenyl)-pyrimidin-4-ylmethyl]-amide]	7.82
O=C(NCc1cc(-c2ccc(C(F)(F)F)cc2)nc(N2CCN(Cc3ccccc3Cl)CC2)n1)[C@@H]1CCCN1S(=O)(=O)c1ccc(F)cc1 [Example 50, 1-(4-Fluoro-benzenesulfonyl)-pyrrolidine-2S-carboxylic acid [2-[4-(2-chloro-benzyl)-piperazin-1-yl]-6-(4-trifluoromethyl-phenyl)-pyrimidin-4-ylmethyl]-amide]	7.44
O=C(NCc1cc(-c2ccc(C(F)(F)F)cc2)nc(N2CCN(Cc3ccccc3OC(F)(F)F)CC2)n1)[C@@H]1CCCN1S(=O)(=O)c1ccc(F)cc1 [Example 51, 1-(4-Fluoro-benzenesulfonyl)-pyrrolidine-2S-carboxylic acid [2-[4-(2-trifluoromethoxy-benzyl)-piperazin-1-yl]-6-(4-trifluoromethyl-phenyl)-pyrimidin-4-ylmethyl]-amide]	6.83
CCc1ccccc1CN1CCN(c2nc(CNC(=O)[C@@H]3CCCN3S(=O)(=O)c3ccc(F)cc3)cc(-c3ccc(C(F)(F)F)cc3)n2)CC1 [Example 52, 1-(4-Fluoro-benzenesulfonyl)-pyrrolidine-2S-carboxylic acid [2-[4-(2-ethyl-benzyl)-piperazin-1-yl]-6-(4-trifluoromethyl-phenyl)-pyrimidin-4-ylmethyl]-amide]	7.89
CC(=O)N(C)C1CCN(c2nc(CNC(=O)[C@@H]3CCCN3S(=O)(=O)c3ccc(Cl)s3)cc(-c3ccc(C(F)(F)F)cc3)n2)C1 (stereo partly drawn) [Example 53, 1-(5-Chloro-thiophene-2-sulfonyl)-pyrrolidine-2S-carboxylic acid [2-[3-(acetyl-methyl-amino)-pyrrolidin-1-yl]-6-(4-trifluoromethyl-phenyl)-pyrimidin-4-ylmethyl]-amide]	6.37
CCN(CC)C1CCN(c2nc(CNC(=O)[C@@H]3CCCN3S(=O)(=O)c3ccc(Cl)s3)cc(-c3ccc(C(F)(F)F)cc3)n2)C1 (stereo partly drawn) [Example 54, 1-(5-Chloro-thiophene-2-sulfonyl)-pyrrolidine-2S-carboxylic acid [2-(3-diethylamino-pyrrolidin-1-yl)-6-(4-trifluoromethyl-phenyl)-pyrimidin-4-ylmethyl]-amide]	5.97
CC(C)N1CCC(CN(C)c2nc(CNC(=O)[C@@H]3CCCN3S(=O)(=O)c3ccc(Cl)s3)cc(-c3ccc(C(F)(F)F)cc3)n2)CC1 [Example 55, 1-(5-Chloro-thiophene-2S-sulfonyl)-pyrrolidine-2S-carboxylic acid [2-[(1-isopropyl-piperidin-4-ylmethyl)-methyl-amino]-6-(4-trifluoromethyl-phenyl)-pyrimidin-4-ylmethyl]-amide]	5.59
CC(C)CN1CCN(c2nc(CNC(=O)[C@@H]3C=CCN3S(=O)(=O)c3ccc(Cl)s3)cc(-c3ccc(C(F)(F)F)cc3)n2)CC1 [Example 56, 1-(5-Chloro-thiophene-2-sulfonyl)-2,5-dihydro-1H-pyrrole-2S-carboxylic acid [2-(4-isobutyl-piperazin-1-yl)-6-(4-trifluoromethyl-phenyl)-pyrimidin-4-ylmethyl]-amide]	7.29
CC(C)CN1CCN(c2nc(CNC(=O)[C@@H]3CC(F)(F)CN3S(=O)(=O)c3ccc(Cl)s3)cc(-c3ccc(C(F)(F)F)cc3)n2)CC1 [Example 57, 1-(5-Chloro-thiophene-2-sulfonyl)-4,4-difluoro-pyrrolidine-2S-carboxylic acid [2-(4-isobutyl-piperazin-1-yl)-6-(4-trifluoromethyl-phenyl)-pyrimidin-4-ylmethyl]-amide]	6.71
O=C(NCc1cc(-c2ccc(C(F)(F)F)cc2)nc(OCC(F)(F)F)n1)[C@@H]1CCCN1S(=O)(=O)c1ccc(Cl)s1 [Example 58, 1-(5-Chloro-thiophene-2-sulfonyl)-pyrrolidine-2S-carboxylic acid [2-(2,2,2-trifluoro-ethoxy)-6-(4-trifluoromethyl-phenyl)-pyrimidin-4-ylmethyl]-amide]	8.30
CN(C)c1nc(CNC(=O)[C@@H]2CC(F)(F)CN2S(=O)(=O)c2ccc(Cl)s2)cc(-c2ccc(C(F)(F)F)cc2)n1 [Example 59]	7.09
CC1CCCN1c1nc(CNC(=O)[C@@H]2CC(F)(F)CN2S(=O)(=O)c2ccc(Cl)s2)cc(-c2ccc(C(F)(F)F)cc2)n1 (stereo partly drawn) [Example 60, 1-(5-Chloro-thiophene-2-sulfonyl)-4,4-difluoro-pyrrolidine-2S-carboxylic acid [2-(2-methyl-pyrrolidin-1-yl)-6-(4-trifluoromethyl-phenyl)-pyrimidin-4-ylmethyl]-amide]	5.21
O=C(NCc1cc(-c2ccc(C(F)(F)F)cc2)nc(OCC(F)(F)F)n1)[C@@H]1CC(F)(F)CN1S(=O)(=O)c1ccc(Cl)s1 [Example 61, 1-(5-Chloro-thiophene-2-sulfonyl)-4,4-difluoro-pyrrolidine-2S-carboxylic acid [2-(2,2,2-trifluoro-ethoxy)-6-(4-trifluoromethyl-phenyl)-pyrimidin-4-ylmethyl]-amide]	6.98
